Where two headings read alike, the source gives them in different places.
Columns and labels:
[1] = target: wild-type un-phosphorylated FGFR3 (Homo sapiens, UniProt P22607); experiment: FGFR Enzymatic Assay (FRET peptide phosphorylation), FGFR3
[2] = target: wild-type un-phosphorylated FGFR2 (Homo sapiens, UniProt P21802); experiment: FGFR Enzymatic Assay (FRET peptide phosphorylation), FGFR2
Method: (§1) The inhibitor potency of the exemplified compounds was determined in an enzyme discontinuous assay that measures peptide phosphorylation using FRET measurements to detect product formation. Inhibitors were serially diluted in DMSO and a volume of 0.2 μL was transferred to the wells of a 384-well plate. […] Appropriate controls (enzyme blank and enzyme with no inhibitor) were included on the plate. […] The 10 μL/well reaction concentration of the peptide substrate was 500 nM whereas the ATP concentration was maintained near or below the ATP Km. The ATP Km values were pre-determined in a separate series of experiments. The reaction plate was incubated at 25° C. for 1 hr and the reactions were ended with the addition of 5 μL/well of quench solution (50 mM Tris, 150 mM NaCl, 0.5 mg/mL BSA, pH 7.8; 45 mM EDTA, 600 nM staurosporin, with Perkin Elmer Lance Reagents at 3.75 nM Eu-antibody PY20 and 180 nM APC-Streptavidin). The plate was allowed to equilibrate for ˜10 minutes at ambient temperature before scanning on a PheraStar plate reader (BMG Labtech) instrument.
(§2) Either GraphPad prism or XLfit was used to analyze the data. The IC50 values were derived by fitting the data to a four parameter logistic equation producing a sigmoidal dose-response curve with a variable Hill coefficient. Prism equation: Y=Bottom+(Top-Bottom)/(1+10^((Log IC50-X)*Hill slope)); XLfit equation: Y=(A+((B−A)/(1+((X/C)^D)))) where X is the logarithm of inhibitor concentration and Y is the response.
(§3) GraphPad prism3 was used to analyze the data. The IC50 values were derived by fitting the data to the equation for a sigmoidal dose-response with a variable slope. Y=Bottom+(Top-Bottom)/(1+10^((Log IC50-X)*Hill Slope)) where X is the logarithm of concentration and Y is the response.
(§4) The data in Table 1 was measured in wild-type un-phosphorylated FGFR1, FGFR2, FGFR3, and FGFR4 proteins.

[3] = target: wild-type un-phosphorylated FGFR4 (Homo sapiens, UniProt P22455); experiment: FGFR Enzymatic Assay (FRET peptide phosphorylation), FGFR4
Method: as §1, §2, §3, §4

[4] = target: wild-type un-phosphorylated FGFR1 (Homo sapiens, UniProt P11362); experiment: FGFR Enzymatic Assay (FRET peptide phosphorylation), FGFR1; conditions: pre-incubated for 4 hours
Method: as §1, §2, §3, §4

[5] = FGFR1, wild-type un-phosphorylated FGFR1
[6] = read-out: FGFR1, wild-type un-phosphorylated FGFR1
[7] = read-out: FGFR4, wild-type un-phosphorylated FGFR4, pre-incubated for 4 hours

Chain of wild-type un-phosphorylated FGFR2 (P21802 22-821): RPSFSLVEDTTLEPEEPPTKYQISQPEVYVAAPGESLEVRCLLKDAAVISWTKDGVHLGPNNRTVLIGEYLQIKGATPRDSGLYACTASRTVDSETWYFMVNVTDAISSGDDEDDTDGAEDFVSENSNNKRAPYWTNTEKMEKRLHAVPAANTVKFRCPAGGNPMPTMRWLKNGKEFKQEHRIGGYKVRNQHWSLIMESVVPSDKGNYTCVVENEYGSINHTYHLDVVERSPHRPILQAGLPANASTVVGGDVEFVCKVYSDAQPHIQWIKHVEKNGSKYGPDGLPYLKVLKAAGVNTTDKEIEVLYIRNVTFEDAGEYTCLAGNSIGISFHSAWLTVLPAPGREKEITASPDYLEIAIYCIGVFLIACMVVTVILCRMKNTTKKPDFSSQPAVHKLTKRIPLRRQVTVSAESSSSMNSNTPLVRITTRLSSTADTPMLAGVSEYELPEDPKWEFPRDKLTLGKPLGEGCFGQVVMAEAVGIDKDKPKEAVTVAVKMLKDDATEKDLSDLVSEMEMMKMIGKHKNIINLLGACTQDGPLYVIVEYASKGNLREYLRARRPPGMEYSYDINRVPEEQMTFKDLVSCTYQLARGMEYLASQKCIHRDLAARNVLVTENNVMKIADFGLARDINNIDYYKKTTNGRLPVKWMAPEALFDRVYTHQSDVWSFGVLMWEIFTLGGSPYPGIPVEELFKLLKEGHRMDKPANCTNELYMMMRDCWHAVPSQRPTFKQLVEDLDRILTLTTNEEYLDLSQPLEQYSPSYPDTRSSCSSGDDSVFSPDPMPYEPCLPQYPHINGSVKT
Chain of wild-type un-phosphorylated FGFR4 (P22455 22-802): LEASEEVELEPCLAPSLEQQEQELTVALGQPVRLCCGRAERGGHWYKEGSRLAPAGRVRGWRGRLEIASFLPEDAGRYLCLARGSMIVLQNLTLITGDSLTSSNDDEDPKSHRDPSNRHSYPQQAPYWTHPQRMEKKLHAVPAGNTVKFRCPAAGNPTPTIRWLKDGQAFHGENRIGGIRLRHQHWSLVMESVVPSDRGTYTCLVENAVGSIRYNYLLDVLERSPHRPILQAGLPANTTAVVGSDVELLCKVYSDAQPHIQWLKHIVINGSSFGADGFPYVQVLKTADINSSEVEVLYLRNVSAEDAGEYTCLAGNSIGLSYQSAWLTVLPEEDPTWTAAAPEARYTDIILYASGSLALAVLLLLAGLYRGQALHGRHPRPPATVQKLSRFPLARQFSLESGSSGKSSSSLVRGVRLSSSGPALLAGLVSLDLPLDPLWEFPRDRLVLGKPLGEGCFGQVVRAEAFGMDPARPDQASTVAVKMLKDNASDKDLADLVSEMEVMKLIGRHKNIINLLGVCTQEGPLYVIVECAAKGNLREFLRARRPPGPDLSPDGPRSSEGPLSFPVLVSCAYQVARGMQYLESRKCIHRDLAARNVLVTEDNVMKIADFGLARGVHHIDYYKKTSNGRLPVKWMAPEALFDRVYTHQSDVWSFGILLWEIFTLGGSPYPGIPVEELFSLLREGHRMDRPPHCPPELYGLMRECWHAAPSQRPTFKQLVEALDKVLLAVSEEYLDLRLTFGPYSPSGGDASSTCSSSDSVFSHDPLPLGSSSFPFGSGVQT
Chain of wild-type un-phosphorylated FGFR3 (P22607 23-806): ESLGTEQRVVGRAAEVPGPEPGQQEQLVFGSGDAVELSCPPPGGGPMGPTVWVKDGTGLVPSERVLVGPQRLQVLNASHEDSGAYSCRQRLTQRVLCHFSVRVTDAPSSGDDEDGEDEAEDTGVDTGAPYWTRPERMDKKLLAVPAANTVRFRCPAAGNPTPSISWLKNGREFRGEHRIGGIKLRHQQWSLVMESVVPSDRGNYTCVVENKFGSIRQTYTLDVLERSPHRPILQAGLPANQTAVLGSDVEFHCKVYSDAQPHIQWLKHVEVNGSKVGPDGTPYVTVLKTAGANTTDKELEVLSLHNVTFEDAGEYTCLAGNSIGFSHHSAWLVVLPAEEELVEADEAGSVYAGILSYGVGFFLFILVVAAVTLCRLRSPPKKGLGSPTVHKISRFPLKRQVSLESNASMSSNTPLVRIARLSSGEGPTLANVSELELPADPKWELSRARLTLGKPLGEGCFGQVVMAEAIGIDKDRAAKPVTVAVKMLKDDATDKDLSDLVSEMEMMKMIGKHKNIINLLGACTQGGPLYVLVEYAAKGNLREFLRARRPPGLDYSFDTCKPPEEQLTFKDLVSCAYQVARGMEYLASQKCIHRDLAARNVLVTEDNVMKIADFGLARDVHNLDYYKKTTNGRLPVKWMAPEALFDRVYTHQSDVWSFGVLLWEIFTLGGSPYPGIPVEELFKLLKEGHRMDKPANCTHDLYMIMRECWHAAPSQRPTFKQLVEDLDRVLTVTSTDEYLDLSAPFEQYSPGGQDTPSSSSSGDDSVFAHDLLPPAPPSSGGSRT
Chain of wild-type un-phosphorylated FGFR1 (P11362 22-822): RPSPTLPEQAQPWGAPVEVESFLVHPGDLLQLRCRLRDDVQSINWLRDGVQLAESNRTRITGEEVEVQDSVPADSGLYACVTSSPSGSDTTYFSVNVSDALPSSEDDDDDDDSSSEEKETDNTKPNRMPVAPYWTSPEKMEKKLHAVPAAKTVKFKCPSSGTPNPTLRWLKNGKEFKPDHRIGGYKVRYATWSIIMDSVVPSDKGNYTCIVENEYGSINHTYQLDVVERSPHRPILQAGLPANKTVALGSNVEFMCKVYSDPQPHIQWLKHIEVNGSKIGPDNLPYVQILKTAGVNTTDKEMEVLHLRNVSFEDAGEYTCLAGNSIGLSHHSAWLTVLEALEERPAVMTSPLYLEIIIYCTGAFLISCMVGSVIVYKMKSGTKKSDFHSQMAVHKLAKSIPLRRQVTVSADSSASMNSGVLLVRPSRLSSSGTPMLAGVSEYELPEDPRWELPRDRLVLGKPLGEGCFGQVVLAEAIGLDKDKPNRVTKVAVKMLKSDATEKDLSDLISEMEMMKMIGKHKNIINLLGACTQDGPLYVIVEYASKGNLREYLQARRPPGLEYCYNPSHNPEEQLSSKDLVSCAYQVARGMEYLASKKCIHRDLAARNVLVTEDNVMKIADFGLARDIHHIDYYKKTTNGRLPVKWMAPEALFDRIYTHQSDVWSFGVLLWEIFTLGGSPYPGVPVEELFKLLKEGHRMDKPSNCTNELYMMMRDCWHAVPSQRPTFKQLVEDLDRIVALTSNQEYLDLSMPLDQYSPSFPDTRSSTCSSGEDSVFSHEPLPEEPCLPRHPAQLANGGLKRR

Compound	IC50 [1] [nM]	IC50 [2] [nM]	IC50 [3] [nM]	IC50 [4, 5] [nM]	IC50 [4, 6] [nM]	IC50 [3, 7] [nM]
[2H]C1(n2cc(-c3n[nH]c4cc(OC)c(-c5cccc6c5CCC6C#N)nc34)cn2)CCN(C(=O)C2CCOCC2)CC1 (stereo not shown) [Example 167, 4-(6-Methoxy-3-(1-(1-(tetrahydro-2H-pyran-4-carbonyl)piperidin-4-yl-4-d)-1H-pyrazol-4-yl)-1H-pyrazolo[4,3-b]pyridin-5-yl)-2,3-dihydro-1H-indene-1-carbonitrile]	< 6	< 6	40 to 100	40 to 100		
COc1cc2[nH]nc(-c3cnn([C@H]4CCN(C(=O)[C@@H]5CCCO5)C4)c3)c2nc1-c1cccc2c1CCC2C#N (stereo partly drawn) [Example 169, 4-(6-Methoxy-3-(1-((S)-1-((S)-tetrahydrofuran-2-carbonyl)pyrrolidin-3-yl)-1H-pyrazol-4-yl)-1H-pyrazolo[4,3-b]pyridin-5-yl)-2,3-dihydro-1H-indene-1-carbonitrile]	< 6	< 6	40 to 100		6 to 40	
COc1cc2[nH]nc(-c3ccc(N4CCN5C[C@H](O)C[C@H]5C4)nc3)c2nc1-c1cccc2c1CCC2 [Example 170, (7R,8aS)-2-(5-(5-(2,3-Dihydro-1H-inden-4-yl)-6-methoxy-1H-pyrazolo[4,3-b]pyridin-3-yl)pyridin-2-yl)octahydropyrrolo[1,2-a]pyrazin-7-ol]	< 6	< 6			6 to 40	6 to 40
COc1cc2[nH]nc(-c3ccc(N4CC(N(C)C(=O)CO)C4)nc3)c2nc1-c1cccc2c1CCC2 [Example 171, N-(1-(5-(5-(2,3-Dihydro-1H-inden-4-yl)-6-methoxy-1H-pyrazolo[4,3-b]pyridin-3-yl)pyridin-2-yl)azetidin-3-yl)-2-hydroxy-N-methylacetamide]	< 6	< 6			6 to 40	6 to 40
COc1cc2[nH]nc(-c3ccc(C4CN(C(=O)C5CCCO5)C4)nc3)c2nc1-c1cccc2c1CCC2 (stereo not shown) [Example 172, (3-(5-(5-(2,3-Dihydro-1H-inden-4-yl)-6-methoxy-1H-pyrazolo[4,3-b]pyridin-3-yl)pyridin-2-yl)azetidin-1-yl)(tetrahydrofuran-2-yl)methanone]	< 6	< 6	40 to 100	40 to 100		
COc1cc2[nH]nc(-c3ccc(C4CN(C(=O)[C@@H]5CCCCN5C)C4)nc3)c2nc1-c1cccc2c1CCC2 [Example 173, (S)-(3-(5-(5-(2,3-Dihydro-1H-inden-4-yl)-6-methoxy-1H-pyrazolo[4,3-b]pyridin-3-yl)pyridin-2-yl)azetidin-1-yl)(1-methylpiperidin-2-yl)methanone]	< 6	< 6			6 to 40	6 to 40
COc1cc2[nH]nc(-c3ccc(C4CN(C(=O)CN(C)C)C4)nc3)c2nc1-c1cccc2c1CCC2 [Example 174, 1-(3-(5-(5-(2,3-Dihydro-1H-inden-4-yl)-6-methoxy-1H-pyrazolo[4,3-b]pyridin-3-yl)pyridin-2-yl)azetidin-1-yl)-2-(dimethylamino)ethan-1-one]	< 6	< 6	40 to 100		6 to 40	
COc1cc2[nH]nc(-c3ccc(C4CN(C(=O)CCO)C4)nc3)c2nc1-c1cccc2c1CCC2 [Example 175, 1-(3-(5-(5-(2,3-Dihydro-1H-inden-4-yl)-6-methoxy-1H-pyrazolo[4,3-b]pyridin-3-yl)pyridin-2-yl)azetidin-1-yl)-3-hydroxypropan-1-one]	< 6	< 6			6 to 40	6 to 40
COc1cc2[nH]nc(-c3ccc(C4CN(C(=O)CO)C4)nc3)c2nc1-c1cccc2c1CCC2 [Example 176, 1-(3-(5-(5-(2,3-Dihydro-1H-inden-4-yl)-6-methoxy-1H-pyrazolo[4,3-b]pyridin-3-yl)pyridin-2-yl)azetidin-1-yl)-2-hydroxyethan-1-one]	< 6	< 6	40 to 100		6 to 40	
COc1cc2[nH]nc(-c3ccc(C4CN(C(=O)[C@H](C)O)C4)nc3)c2nc1-c1cccc2c1CCC2 [Example 177, (S)-1-(3-(5-(5-(2,3-Dihydro-1H-inden-4-yl)-6-methoxy-1H-pyrazolo[4,3-b]pyridin-3-yl)pyridin-2-yl)azetidin-1-yl)-2-hydroxypropan-1-one]	< 6	< 6	40 to 100	40 to 100		
COc1cc2[nH]nc(-c3ccc(C4CC(N(C)C(=O)CO)C4)nc3)c2nc1-c1cccc2c1CCC2 (stereo not shown) [Example 178, N-(3-(5-(5-(2,3-Dihydro-1H-inden-4-yl)-6-methoxy-1H-pyrazolo[4,3-b]pyridin-3-yl)pyridin-2-yl)cyclobutyl)-2-hydroxy-N-methylacetamide]	< 6	< 6			6 to 40	6 to 40
[2H]C1(c2ccc(-c3n[nH]c4cc(OC)c(-c5cccc6c5CCC6)nc34)cn2)CN(C(=O)CO)C1 [Example 179, 1-(3-(5-(5-(2,3-Dihydro-1H-inden-4-yl)-6-methoxy-1H-pyrazolo[4,3-b]pyridin-3-yl)pyridin-2-yl)azetidin-1-yl-3-d)-2-hydroxyethan-1-one]	< 6	< 6			6 to 40	6 to 40

Second part, the molecule after the results:

IC50 [1] [nM]	IC50 [2] [nM]	IC50 [3] [nM]	IC50 [4, 5] [nM]	IC50 [4, 6] [nM]	IC50 [3, 7] [nM]	Compound
< 6	< 6	40 to 100	40 to 100			COC(=O)N1CCC(c2ccc(-c3n[nH]c4cc(OC)c(-c5cccc6c5CCC6C#N)nc34)cn2)CC1 (stereo not shown) [Example 180, Methyl 4-(5-(5-(1-Cyano-2,3-dihydro-1H-inden-4-yl)-6-methoxy-1H-pyrazolo[4,3-b]pyridin-3-yl)pyridin-2-yl)piperidine-1-carboxylate]
< 6	< 6			6 to 40	6 to 40	COc1cc2[nH]nc(-c3ccc(C4CN(CCC#N)C4)nc3)c2nc1-c1cccc2c1CCC2 [Example 187, 3-(3-(5-(5-(2,3-Dihydro-1H-inden-4-yl)-6-methoxy-1H-pyrazolo[4,3-b]pyridin-3-yl)pyridin-2-yl)azetidin-1-yl)propanenitrile]
< 6	< 6			6 to 40	6 to 40	COCC(=O)N(C)C1CC(c2ccc(-c3n[nH]c4cc(OC)c(-c5cccc6c5CCC6)nc34)cn2)C1 (stereo not shown) [Example 188, N-(3-(5-(5-(2,3-Dihydro-1H-inden-4-yl)-6-methoxy-1H-pyrazolo[4,3-b]pyridin-3-yl)pyridin-2-yl)cyclobutyl)-2-methoxy-N-methylacetamide]
< 6	< 6			6 to 40	6 to 40	COc1cc2[nH]nc(-c3ccc(C4CC(N(C)C(=O)CCO)C4)nc3)c2nc1-c1cccc2c1CCC2 (stereo not shown) [Example 189, N-(3-(5-(5-(2,3-Dihydro-1H-inden-4-yl)-6-methoxy-1H-pyrazolo[4,3-b]pyridin-3-yl)pyridin-2-yl)cyclobutyl)-3-hydroxy-N-methylpropanamide]
< 6	< 6	40 to 100		6 to 40		COc1cc2[nH]nc(-c3ccc(C4CC(N(C)C(=O)[C@H](C)O)C4)nc3)c2nc1-c1cccc2c1CCC2 (stereo partly drawn) [Example 190, (S)-N-(3-(5-(5-(2,3-Dihydro-1H-inden-4-yl)-6-methoxy-1H-pyrazolo[4,3-b]pyridin-3-yl)pyridin-2-yl)cyclobutyl)-2-hydroxy-N-methylpropanamide]
< 6	< 6			6 to 40	6 to 40	COc1cc2[nH]nc(-c3ccc(C45CC4CN(C(=O)CO)C5)nc3)c2nc1-c1cccc2c1CCC2 (stereo not shown) [Example 191A, 1-(1-(5-(5-(2,3-Dihydro-1H-inden-4-yl)-6-methoxy-1H-pyrazolo[4,3-b]pyridin-3-yl)pyridin-2-yl)-3-azabicyclo[3.1.0]hexan-3-yl)-2-hydroxyethan-1-one]
< 6	< 6			6 to 40	6 to 40	COc1cc2[nH]nc(-c3ccc(C45CC4CN(C4CCOCC4)C5)nc3)c2nc1-c1cccc2c1CCC2 (stereo not shown) [Example 193, 5-(2,3-Dihydro-1H-inden-4-yl)-6-methoxy-3-(6-(3-(tetrahydro-2H-pyran-4-yl)-3-azabicyclo[3.1.0]hexan-1-yl)pyridin-3-yl)-1H-pyrazolo[4,3-b]pyridine]
< 6	< 6			6 to 40	6 to 40	COc1cc2[nH]nc(-c3ccc(C45CC4CN(CCO)C5)nc3)c2nc1-c1cccc2c1CCC2 (stereo not shown) [Example 194A, 2-(1-(5-(5-(2,3-Dihydro-1H-inden-4-yl)-6-methoxy-1H-pyrazolo[4,3-b]pyridin-3-yl)pyridin-2-yl)-3-azabicyclo[3.1.0]hexan-3-yl)ethan-1-ol]
< 6	< 6	40 to 100		6 to 40		COc1cc2[nH]nc(-c3ccc(C4(C#N)CCN(C(=O)CO)C4)nc3)c2nc1-c1cccc2c1CCC2 (stereo not shown) [Example 198, 3-(5-(5-(2,3-Dihydro-1H-inden-4-yl)-6-methoxy-1H-pyrazolo[4,3-b]pyridin-3-yl)pyridin-2-yl)-1-(2-hydroxyacetyl)pyrrolidine-3-carbonitrile]
< 6	< 6	40 to 100	40 to 100			COc1cc2[nH]nc(-c3ccc(CN4CCN(C)C(=O)[C@@H]4C)nc3)c2nc1-c1cccc2c1CCC2 [Example 199, (S)-4-((5-(5-(2,3-Dihydro-1H-inden-4-yl)-6-methoxy-1H-pyrazolo[4,3-b]pyridin-3-yl)pyridin-2-yl)methyl)-1,3-dimethylpiperazin-2-one]

Reference: patent US12083124B2 (Incyte Corporation, priority 2019, dated 2024)
